{
  "source": "patent US10526343B2",
  "about": "“Heterocyclic systems and pharmaceutical applications thereof” (University of Sharjah, priority 2018, dated 2020)",
  "key": {"[1]": {"tested_on": "Bacillus subtilis (environmental isolate)", "assay": "Cell viability assay (resazurin) screening for antibacterial activity", "type": "cell-based", "set-up": "key: Positive: A positive result indicates antibacterial activity expressed as growth inhibition; Negative: a negative result indicates no antibacterial activity expressed as bacterial growth at the tested concentration", "settings": "single high concentration of 1 mg/mL"}, "S. aureus (ATCC 25923)": {"tested_on": "S. aureus (ATCC 25923)", "assay": "MIC by broth microdilution", "type": "cell-based", "settings": "Staphylococcus aureus, ATCC25923", "description": "Bacteria of the genus Staphylococcus were selected for MIC investigation due to its clinical importance. Compounds showing activity against S. aureus (ATCC 25923) were tested against 10 multidrug-resistant strains of Staphylococcus species, including: clinical isolates methicillin-resistant Staphylococcus aureus (MRSA) strains MRSA-1, MRSA-2, and MRSA-3, and environmental isolates S. saprophyticus (strains UDH-1, UDH-2, UDH-3 and UDH-4), S. haemolyticus (strains UDH-6 and UDH-7), and S. epidermidis strain UDH-5.\n(§1) A broth microdilution method was used to measure MIC according to the Clinical and Laboratory Standards Institute guidelines. Two-fold serial dilutions of the test compound (8 concentrations ranged between 100-0.78 μg/mL) were tested. Two reference antibiotics were used as quality controls (ciprofloxacin and amikacin). In each experiment, solvent (DMSO) was used as a negative control, un-treated control (composing of bacteria in Mueller-Hinton broth) was used as a growth control, blank (culture media alone) was used as sterility control. The 96-well microplate with the test compounds was incubated for 20 hours at 37° C. Turbidity in wells indicated bacterial growth. […] For the definite determination of MIC, CellTiter-Blue® Cell Viability Assay (Promega, USA) was used (as above). The MIC was defined as the lowest compound concentration that prevented the color change of the Cell Viability solution (absence of bacterial growth; thus, suspension remained blue in color). For the definite determination of MIC, CellTiter-Blue® Cell Viability Assay (Promega, USA) was used (as above). To each well of the 96-well microplate, 20 μL of the Cell Viability Assay solution was added to the overnight (20 hours culture) and incubated at 37° C. for 4 hours. After the end of the incubation, pink and blue colors were used to differentiate viable from dead bacterial suspensions, respectively. The MIC was defined as the lowest compound concentration that prevented the color change."}, "[2]": {"tested_on": "Pseudomonas aeruginosa (ATCC 27853)", "assay": "Cell viability assay (resazurin) screening for antibacterial activity", "type": "cell-based", "set-up": "key: Positive: A positive result indicates antibacterial activity expressed as growth inhibition; Negative: a negative result indicates no antibacterial activity expressed as bacterial growth at the tested concentration", "settings": "single high concentration of 1 mg/mL"}, "[3]": {"tested_on": "Enterococcus faecalis (ATCC 29212)", "assay": "Cell viability assay (resazurin) screening for antibacterial activity", "type": "cell-based", "set-up": "key: Positive: A positive result indicates antibacterial activity expressed as growth inhibition; Negative: a negative result indicates no antibacterial activity expressed as bacterial growth at the tested concentration", "settings": "single high concentration of 1 mg/mL"}, "MRSA-1": {"tested_on": "MRSA-1", "assay": "Time-kill study", "type": "cell-based, Staphylococcus aureus", "description": "Time-kill study: Compound 1o was tested for the time required to kill the bacterial strain MRSA-1. A time-kill assay was performed by the broth micro-dilution method in accordance with the CLSI guidelines. Inoculum suspensions with approximately 5×10^5 CFU/mL of exponentially growing bacterial cells were incubated in each well of a 96-well plate. […] Aliquots of 20 μL were removed from the inoculum culture after timed intervals of incubation (i.e. 0, 30 minutes, 1, 2, 4, 6, 8, and 24 hours), and serial 10-fold dilutions were prepared in 0.85% sodium chloride solution. Then, 10-100 μL of each dilution (as appropriate) were spread on the surface of Mueller-Hinton agar plates and incubated at 37° C. for 24 hours. Plate count technique was used to determine the number of viable cells for each time point. The experiments were performed in triplicate. Meropenem and ciprofloxacin were used as quality control antibiotics."}, "[4]": {"tested_on": "Staphylococcus aureus (ATCC 25923)", "assay": "Cell viability assay (resazurin) screening for antibacterial activity", "type": "cell-based", "settings": "single high concentration of 1 mg/mL"}, "[5]": {"tested_on": "MRSA-2 (clinical isolate, methicillin-resistant Staphylococcus aureus)", "assay": "MIC by broth microdilution", "type": "cell-based", "description": "(§2) Bacteria of the genus Staphylococcus were selected for MIC investigation due to its clinical importance.\nas §1, with “Two reference antibiotics were used as quality controls (ciprofloxacin and amikacin).” left out"}, "[6]": {"tested_on": "MRSA-3 (clinical isolate, methicillin-resistant Staphylococcus aureus)", "assay": "MIC by broth microdilution", "type": "cell-based", "description": "as §2\nas §1, with “Two reference antibiotics were used as quality controls (ciprofloxacin and amikacin).” left out"}, "[7]": {"tested_on": "MRSA-1 (clinical isolate, methicillin-resistant Staphylococcus aureus)", "assay": "MIC by broth microdilution", "type": "cell-based", "description": "as §2\nas §1, with “Two reference antibiotics were used as quality controls (ciprofloxacin and amikacin).” left out"}},
  "data": [
    {"molecule": "COC(=O)CC1COc2c(cc3c4c2CCCN4CCC3)-c2c(NC(C)(C)C)n3c(-c4ccc(Br)cc4)c(C)sc3[n+]21", "note": "(centres unmarked) [Compound 1o]", "values": [
      {"measurement": "antibacterial activity, Bacillus subtilis", "setting": "[1]", "value": "Positive"},
      {"measurement": "MIC", "setting": "S. aureus (ATCC 25923)", "value": 3.12, "unit": "µg/mL"},
      {"measurement": "antibacterial activity, Pseudomonas aeruginosa", "setting": "[2]", "value": "Negative"},
      {"measurement": "antibacterial activity, Enterococcus faecalis", "setting": "[3]", "value": "Positive"},
      {"measurement": "time of exposure at which killing was achieved", "setting": "MRSA-1; 12.5 μg/mL", "value": 6, "unit": "h"},
      {"measurement": "time of exposure at which killing was achieved", "setting": "MRSA-1; 25 μg/mL", "value": 2, "unit": "h"},
      {"measurement": "time of exposure at which killing was achieved", "setting": "MRSA-1; 3.125-6.25 μg/mL", "value": 24, "unit": "h"},
      {"measurement": "time of exposure to complete elimination of MRSA growth", "setting": "MRSA-1; concentration ≥50 μg/mL", "value": "≤ 30", "unit": "min"},
      {"measurement": "time of exposure at which killing was achieved", "setting": "MRSA-1; concentrations between 50-100 μg/mL", "value": 0.5, "unit": "h"},
      {"measurement": "antibacterial activity, Staphylococcus aureus", "setting": "[4]", "value": "positive antibacterial activities"},
      {"measurement": "MIC", "setting": "[5]", "value": 3.12, "unit": "µg/mL"},
      {"measurement": "MIC", "setting": "[6]", "value": 3.12, "unit": "µg/mL"},
      {"measurement": "times lower than the MIC of ciprofloxacin", "setting": "[7]; MRSA-1", "value": "approximately 10 times"},
      {"measurement": "MIC", "setting": "[7]; Staphylococcus aureus, MRSA, clinical isolate", "value": 3.12, "unit": "µg/mL"}
    ]}
  ]
}
